Experimental findings from patent US7722863B2, “Use of granzyme b as an hsp70/hsp70 peptide dependent inducer of apoptosis in tumor cells” (Multimmune GmbH, priority 2002, dated 2010) are described below.

Where “and” joins values, the source holds several entries; their conditions need not be identical. Equal values may be shown once.

Assay [1] has as its system CX+/CX− and Colo+/Colo− tumor cells. Kind of assay: Light microscopical analysis of plastic adherence (anoikes). It counts as cell-based, human. As to conditions: 24 h post-treatment with granzyme B; Hsp70 membrane-positive and -negative lines. The method, then:
In order to exclude apoptosis initiated by anoikes light microscopical analysis of untreated (control), camptothecin (cam) and granzyme B (grB) treated CX+/CX− and Colo+/Colo− tumor cells were performed. […] Regarding these findings we ruled out the possibility that anoikes might be a possible mechanism for the induction of apoptotic cell death in Hsp70 membrane-positive tumor sublines. It is important to note that all apoptosis assays were determined within the adherent cell population following a short term (<1 min) trypsinization.

Assay [2] relates to Hsp70 membrane-positive CX+ tumor subline. Briefly: Cell surface binding and uptake of granzyme B (fluorescence microscopy, flow cytometry). The assay is classed as cell-based, human. (In general: In flow cytometry, cells or beads pass a laser one at a time.)
The next assay has as its system CX+ tumor cells. Briefly: Cytochrome c release, quantitative immunoassay. It counts as cell-based, human. As to conditions: camptothecin 4 μg/ml or granzyme B 6 ng/ml, 24 h. The procedure:
(§1) Cytochrome c release: Cytochrome c release was determined using a quantitative immunoassay; (DCDCO, R&D Systems, Wiesbaden, Germany). Briefly, either untreated, camptothecin (4 μg/ml) or granzyme B (6 ng/ml) treated CX+ and CX− cells (1.5×10^6/ml) were washed in PBS and treated with lysis buffer for 1 h at room temperature. Following centrifugation at 1,000 g for 15 min supernatants were removed and 200 μl of a 1:100, 1:250, and a 1:500 dilution was used for a sandwich ELISA. Following incubation with substrate solution in the dark for 30 min the reaction was stopped. The optical density of each well was determined on an ELISA reader at 450 nm. The amount of cytochrome c was determined according to a calibration curve.
(§2) As an additional test for apoptotic cell death, cytochrome c release was measured following incubation of CX+ and CX− cells with granzyme B for 24 h. As summarized in Table I, following incubation with granzyme B (6 ng/ml) for 24 h, cytochrome c concentration was elevated from 0.382 mg/ml to 0.690 mg/ml (1.8-fold) in CX+ cells. […] It was propose that the trigger of apoptosis by granzyme B is mediated via the extracellular exposed Hsp70 epitope TKD.

In another assay the test system is CX− tumor cells. Kind of assay: Cytochrome c release, quantitative immunoassay. It counts as cell-based, human. As to conditions: camptothecin 4 μg/ml or granzyme B 6 ng/ml, 24 h. The method, then:
as §1, §2

Another assay addresses T1, Hsp70-peptide TKD (Homo sapiens, UniProt P0DMV8).
T1 construct: Hsp70-peptide TKD (TKDNNLLGRFELSG (SEO ID NO:1), aa450-463, Bachem, Bubendorf, Switzerland); purchased Bachem
Kind of assay: Affinity chromatography of YT cell lysate, Western blot of eluates. The assay is classed as binding. The following applies: Western blot with mAb 2C5, fraction F3. The method, then: (§3) Bovine serum albumine (BSA, 1 mg/ml, Sigma-Aldrich, Steinheim, Germany), 1 mg/ml lyophylized, recombinant human Hsp70-protein (Stressgen, British Columbia, Canada) or 2 mg/mi Hsp70-peptide TKD (TKDNNLLGRFELSG (SEO ID NO:1), aa450-463, Bachem, Bubendorf, Switzerland) were incubated with equilibrated AminoLink agarose beads (Pierce, Rockford, USA) in 2 ml for 6 h, together with the reductant NaCNBH3. Binding capacity of BSA, Hsp70-protein and Hsp70-peptide TKD was greater 95%. Following removal of uncoupled material by extensive washing with Tris-buffer and quenching of non-reactive groups, cell lysates were administered to the BSA, Hsp70-protein and Hsp70-peptide TKD conjugated columns for 1 h.
(§4) After washing with 10 column volumes of 20 mM Tris buffer, bound proteins were eluted with 3 M sodium chloride in 20 mM Tris buffer, in 5 fractions. Each fraction was subjected to a 10% SDS-PAGE and blotted to PVDF membranes.
(§5) Following blocking in skim-milk (0.1%) and incubation with mAb directed against granzyme B 2C5 (IgG2a, Becton Dickinson, Heidelberg, Germany), at 4° C., for 5 h, Western blots were washed and incubated with a secondary mouse anti-IgG HRP Ab (Dianova, Hamburg, Germany), for 1 h. Proteins were detected using the ECL kit (Amersham Bioscience) for 5 sec. […]
Background: In western blotting, separated proteins are transferred to a membrane and probed.

In assay [3] the target is T2, recombinant human Hsp70-protein (Homo sapiens, UniProt P0DMV8).
T2 construct: purchased Stressgen
The assay is described as above. It counts as binding. As to conditions: Western blot with mAb 2C5, fraction F3. The method, then:
as §3, §4, §5

T2 sequence (P0DMV8 whole entry): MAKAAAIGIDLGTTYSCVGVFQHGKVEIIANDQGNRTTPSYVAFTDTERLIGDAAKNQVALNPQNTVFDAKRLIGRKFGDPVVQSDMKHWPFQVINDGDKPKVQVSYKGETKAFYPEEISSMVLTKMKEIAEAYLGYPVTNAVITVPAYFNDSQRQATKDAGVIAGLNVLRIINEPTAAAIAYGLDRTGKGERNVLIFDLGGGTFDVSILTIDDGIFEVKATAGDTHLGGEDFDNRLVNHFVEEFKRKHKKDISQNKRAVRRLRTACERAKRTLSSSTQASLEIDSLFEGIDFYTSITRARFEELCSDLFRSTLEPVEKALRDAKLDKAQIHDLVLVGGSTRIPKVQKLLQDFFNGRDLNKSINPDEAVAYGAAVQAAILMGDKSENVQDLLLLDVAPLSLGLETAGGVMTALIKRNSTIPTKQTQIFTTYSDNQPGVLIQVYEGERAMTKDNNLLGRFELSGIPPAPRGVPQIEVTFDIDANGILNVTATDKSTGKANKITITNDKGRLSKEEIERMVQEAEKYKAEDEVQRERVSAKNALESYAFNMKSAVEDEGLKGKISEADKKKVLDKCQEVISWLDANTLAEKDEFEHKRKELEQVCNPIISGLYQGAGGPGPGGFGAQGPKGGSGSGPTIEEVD

granzyme B: in assay [1], the “loss in plastic adherence” value is recorded as “neither Hsp70 membrane-positive nor -negative tumor cell lines exhibited any signs of loss in plastic adherence”. The “granzyme B uptake, flow cytometry of permeabilized cells” value in assay [2] (1 μg/ml granzyme B, 30 min, 37° C.) is listed as “faint shift of the granzyme B peak to the right”; in assay [2] (2 μg/ml and 4 μg/ml granzyme B), “dose-dependent increase in granzyme B uptake”. Moreover, the “granzyme B cell surface binding (immunofluorescence)” value in assay [2] (15 min at 4° C., granzyme B 2 μg/ml) was “typical cell surface staining, was detected”. For the same substance, the “granzyme B uptake, cytoplasmic staining (immunofluorescence)” value in assay [2] (temperature shift 4° C. to 37° C., 30 min) is reported as “resulted in uptake of granzyme B”. Besides, the “cytochrome c fold increase” value with CX+ tumor cells (control 1.0) was 1.8 fold; in the assay with CX− tumor cells (control 1.0), 0.9 fold. For the same substance, the cytochrome c in the assay on CX+ tumor cells (mean of 4 experiments ± S.E., control 0.382 ± 0.02) is 0.690 mg/mL and 0.690 ± 0.08 mg/mL; in the assay on CX− tumor cells (mean of 4 experiments ± S.E., control 0.452 ± 0.02), 0.425 mg/mL and 0.425 ± 0.075 mg/mL. In addition, the “granzyme B in YT cell eluates from Hsp70-peptide (TKD) column” value with Hsp70-peptide TKD is listed as “dominant 32 kDa granzyme B protein band”. Besides, in assay [3], the “granzyme B in YT cell eluates from Hsp70-protein column” value is given as “dominant 32 kDa granzyme B protein band”.
